Like-named read-outs stand apart in the source and are kept apart here.
Molecular target: human μ-opiate receptor (Homo sapiens, UniProt P35372)
Assay: Affinity for the human μ-opiate receptor ([3H]-naloxone displacement, SPA, CHO-K1 membrane preparation)
Format: binding
Settings: for inhibition at 1 µM: read-out: μ-Opioid receptor, % inhibition [1 μM]; for Ki: read-out: μ-Opioid receptor, Ki
[1] = 1 μM test substance, inhibition of specific [3H]-naloxone binding

human μ-opiate receptor, sequence (P35372 whole entry): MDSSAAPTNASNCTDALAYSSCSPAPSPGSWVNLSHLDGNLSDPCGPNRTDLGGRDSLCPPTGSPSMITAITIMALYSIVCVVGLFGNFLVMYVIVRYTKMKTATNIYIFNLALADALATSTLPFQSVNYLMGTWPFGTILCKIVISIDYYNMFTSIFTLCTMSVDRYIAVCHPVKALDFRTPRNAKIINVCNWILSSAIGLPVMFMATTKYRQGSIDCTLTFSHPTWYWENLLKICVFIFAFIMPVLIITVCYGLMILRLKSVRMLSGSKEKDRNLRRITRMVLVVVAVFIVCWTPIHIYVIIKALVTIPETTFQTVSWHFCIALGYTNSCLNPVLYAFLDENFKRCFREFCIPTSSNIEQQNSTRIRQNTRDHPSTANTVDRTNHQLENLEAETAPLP

Compound | inhibition at 1 µM [%] | Ki [nM] | inhibition at 1 µM [1] [%] | μ-Opioid receptor, % inhibition [1 μM] [%]
CN(C)C(c1ccccc1)C1CCC(NC(=O)c2cc(F)c(F)cc2F)CC1 (centres unmarked) [compound 196, N-[4-(dimethylamino-phenyl-methyl)-cyclohexyl]-2,4,5-trifluoro-benzamide] | 96 | 19 | – | –
CN(C)C(c1cccs1)C1CCC(CNC(=O)c2cccc(Br)c2)CC1 (centres unmarked) [compound 307, 3-bromo-N-[4-(dimethylamino-thiophen-2-yl-methyl)-cyclohexylmethyl]-benzamide] | 98 | 6.2 | – | –
CN(C)C(CCc1ccccc1)C1CCC(CNC(=O)c2csc3ccccc23)CC1 (centres unmarked) [compound 380, benzo[b]thiophene-3-carboxylic acid [4-(1-dimethylamino-3-phenyl-propyl)-cyclohexylmethyl]-amide] | 83 | 95 | – | –
CN(C)C(c1ccccc1)C1CCC(NC(=O)c2csc(-c3ccccc3)n2)CC1 (centres unmarked) [compound 237, 2-phenyl-thiazole-4-carboxylic acid [4-(dimethylamino-phenyl-methyl)-cyclohexyl]-amide] | 83 | 48 | – | –
CN(C)C(c1ccc(Cl)cc1)C1CCC(CCNC(=O)c2ccccc2Cl)CC1 (centres unmarked) [compound 403, 2-chloro-N-(2-{4-[(4-chloro-phenyl)-dimethylamino-methyl]-cyclohexyl}-ethyl)-benzamide] | 81 | 74 | – | –
CN(C)C(c1cccc(F)c1)C1CCC(O)(Cc2ccccc2)CC1 (centres unmarked) [compound 152, 1-benzyl-4-[dimethylamino-(3-fluoro-phenyl)-methyl]-cyclohexanol] | – | – | 63 | –
CN(C)C(c1ccccc1)C1CCC(NC(=O)c2csc3ccccc23)CC1 (centres unmarked) [compound 183, benzo[b]thiophene-3-carboxylic acid [4-(dimethylamino-phenyl-methyl)-cyclohexyl]-amide] | 103 | 3.9 | – | –
Cc1ccccc1C1(O)CCC(C(c2ccc(Cl)cc2)N(C)C)CC1 (centres unmarked) [compound 161, 4-[(4-chloro-phenyl)-dimethylamino-methyl]-1-o-tolyl-cyclohexanol] | – | – | 60 | –
CN(C)C(c1ccccc1)C1CCC(CCNC(=O)c2cncc(Br)c2)CC1 (centres unmarked) [compound 473, 5-bromo-N-{2-[4-(dimethylamino-phenyl-methyl)-cyclohexyl]-ethyl}-nicotinamide] | 91 | 18 | – | –
CN(C)C(c1cccs1)C1CCC(CNC(=O)c2c(F)cccc2F)CC1 (centres unmarked) [compound 313, N-[4-(dimethylamino-thiophen-2-yl-methyl)-cyclohexylmethyl]-2,6-difluoro-benzamide] | 97 | 35 | – | –
COC(=O)C(Cc1c[nH]c2ccccc12)NC1CCC(C(c2ccccc2)N(C)C)CC1 (single isomer, unassigned) [compound 174, methyl 2-(4-((dimethylamino)(phenyl)methyl)cyclohexylamino)-3-(1H-indol-3-yl)propanoate] | – | 4.9 | 95 | –
CN(C)C(c1ccccc1)C1CCC(NC(=O)c2ccc(C(C)(C)C)cc2)CC1 (centres unmarked) [compound 217, 4-tert-butyl-N-[4-(dimethylamino-phenyl-methyl)-cyclohexyl]-benzamide] | 90 | 62 | – | –
CN(C)C(c1cccc(F)c1)C1CCC(CNC(=O)c2cccs2)CC1 (single isomer, unassigned) [compound 340, thiophene-2-carboxylic acid {4-[dimethylamino-(3-fluoro-phenyl)-methyl]-cyclohexylmethyl}-amide] | – | 55 | – | 91
CN(C)C(c1ccc(Cl)cc1)C1CCC(O)(c2cccc(F)c2)CC1 (centres unmarked) [compound 171, 4-[(4-chloro-phenyl)-dimethylamino-methyl]-1-(3-fluoro-phenyl)-cyclohexanol] | – | – | 67 | –
CN(C)C(c1ccccc1)C1CCC(CCNC(=O)c2cc3ccccc3s2)CC1 (centres unmarked) [compound 457, benzo[b]thiophene-2-carboxylic acid {2-[4-(dimethylamino-phenyl-methyl)-cyclohexyl]-ethyl}-amide] | 91 | 40 | – | –
Cc1oc(-c2ccccc2)cc1C(=O)NC1CCC(C(c2ccccc2)N(C)C)CC1 (centres unmarked) [compound 214, 2-methyl-5-phenyl-furan-3-carboxylic acid [4-(dimethylamino-phenyl-methyl)-cyclohexyl]-amide] | 91 | 28 | – | –
Cc1ccc(Oc2ncccc2C(=O)NC2CCC(C(c3cccs3)N(C)C)CC2)cc1 (centres unmarked) [compound 220, N-[4-(dimethylamino-thiophen-2-yl-methyl)-cyclohexyl]-2-p-tolyloxy-nicotinamide] | 88 | 150 | – | –
Cc1ccc(C2(O)CCC(C(c3ccc(Cl)cc3)N(C)C)CC2)cc1 (centres unmarked) [compound 165, 4-[(4-chloro-phenyl)-dimethylamino-methyl]-1-p-tolyl-cyclohexanol] | – | – | 52 | –
CN(C)C(c1cccc(F)c1)C1CCC(CCNC(=O)c2ccccc2Br)CC1 (centres unmarked) [compound 396, 2-bromo-N-(2-{4-[dimethylamino-(3-fluoro-phenyl)-methyl]-cyclohexyl}-ethyl)-benzamide] | 97 | 12 | – | –

Compound | inhibition at 1 µM [%] | Ki [nM] | inhibition at 1 µM [1] [%] | μ-Opioid receptor, % inhibition [1 μM] [%]
CN(C)C(c1ccccc1)C1CCC(CNC(=O)c2cccc(Br)c2)CC1 (centres unmarked) [compound 358, 3-bromo-N-[4-(dimethylamino-phenyl-methyl)-cyclohexylmethyl]-benzamide] | 86 | 11 | – | –
CN(C)C(c1ccccc1)C1CCC(NC(=O)COCc2ccccc2)CC1 (centres unmarked) [compound 254, 2-benzyloxy-N-[4-(dimethylamino-phenyl-methyl)-cyclohexyl]-acetamide] | 80 | 56 | – | –
CN(C)C(c1cccc(F)c1)C1CCC(NC(=O)c2csc(-c3ccccc3)n2)CC1 (centres unmarked) [compound 264, 2-phenyl-thiazole-4-carboxylic acid {4-[dimethylamino-(3-fluoro-phenyl)-methyl]-cyclohexyl}-amide] | 78 | 110 | – | –
CN(C)C(c1ccccc1)C1CCC(CCNC(=O)COCc2ccccc2)CC1 (centres unmarked) [compound 450, 2-benzyloxy-N-{2-[4-(dimethylamino-phenyl-methyl)-cyclohexyl]-ethyl}-acetamide] | 89 | 81 | – | –
CN(C)C(c1cccs1)C1CCC(NC(=O)Cc2ccc(Cl)cc2)CC1 (centres unmarked) [compound 219, 2-(4-chloro-phenyl)-N-[4-(dimethylamino-thiophen-2-yl-methyl)-cyclohexyl]-acetamide] | 89 | 56 | – | –
CN(C)C(c1ccccc1)C1CCC(CNC(=O)CC(C)(C)C)CC1 (centres unmarked) [compound 298, N-[4-(dimethylamino-phenyl-methyl)-cyclohexylmethyl]-3,3-dimethyl-butyramide] | 100 | 4 | – | –
COc1cccc(C(=O)NC2CCC(C(c3cccs3)N(C)C)CC2)c1 (centres unmarked) [compound 199, N-[4-(dimethylamino-thiophen-2-yl-methyl)-cyclohexyl]-3-methoxy-benzamide] | 94 | 21 | – | –
CN(C)C(c1ccccc1)C1CCC(CCNC(=O)c2c(Cl)cccc2Cl)CC1 (centres unmarked) [compound 413, 2,6-dichloro-N-{2-[4-(dimethylamino-phenyl-methyl)-cyclohexyl]-ethyl}-benzamide] | 81 | 31 | – | –
CN(C)C(c1cccc(F)c1)C1CCC(NC(=O)c2ccc3nsnc3c2)CC1 (centres unmarked) [compound 290, benzo[1,2,5]thiadiazole-5-carboxylic acid {4-[dimethylamino-(3-fluoro-phenyl)-methyl]-cyclohexyl}-amide] | 70 | – | – | –
Cc1ccccc1C(=O)NCCC1CCC(C(c2cccc(F)c2)N(C)C)CC1 (centres unmarked) [compound 420, N-(2-{4-[dimethylamino-(3-fluoro-phenyl)-methyl]-cyclohexyl}-ethyl)-2-methyl-benzamide] | 94 | 16 | – | –
CN(C)C(c1ccccc1)C1CCC(NC(=O)COc2ccc(Cl)cc2)CC1 (centres unmarked) [compound 284, 2-(4-chloro-phenoxy)-N-[4-(dimethylamino-phenyl-methyl)-cyclohexyl]-acetamide] | 72 | 63 | – | –
CCn1nc(C)c(Br)c1C(=O)NC1CCC(C(c2cccs2)N(C)C)CC1 (centres unmarked) [compound 260, 4-bromo-2-ethyl-5-methyl-2H-pyrazole-3-carboxylic acid [4-(dimethylamino-thiophen-2-yl-methyl)-cyclohexyl]-amide] | 78 | – | – | –
Cc1cccc(C(=O)NCCC2CCC(C(c3ccc(F)cc3)N(C)C)CC2)c1 (centres unmarked) [compound 429, N-(2-{4-[dimethylamino-(4-fluoro-phenyl)-methyl]-cyclohexyl}-ethyl)-3-methyl-benzamide] | 88 | 55 | – | –
CN(C)C(c1cccs1)C1CCC(CNC(=O)CC(C)(C)C)CC1 (centres unmarked) [compound 301, N-[4-(dimethylamino-thiophen-2-yl-methyl)-cyclohexylmethyl]-3,3-dimethyl-butyramide] | 99 | 2.7 | – | –
CN(C)C(c1ccccc1)C1CCC(CCNC(=O)c2c(F)c(F)c(F)c(F)c2F)CC1 (centres unmarked) [compound 460, N-{2-[4-(dimethylamino-phenyl-methyl)-cyclohexyl]-ethyl}-2,3,4,5,6-pentafluoro-benzamide] | 97 | 9.5 | – | –
COc1c(C(=O)NC2CCC(C(c3ccccc3)N(C)C)CC2)csc1Cl (centres unmarked) [compound 188, 5-chloro-4-methoxy-thiophene-3-carboxylic acid [4-(dimethylamino-phenyl-methyl)-cyclohexyl]-amide] | 100 | 5.2 | – | –
CN(C)C(c1cccs1)C1CCC(CCNC(=O)c2ccccc2Cl)CC1 (centres unmarked) [compound 425, 2-chloro-N-{2-[4-(dimethylamino-thiophen-2-yl-methyl)-cyclohexyl]-ethyl}-benzamide] | 94 | 6 | – | –
CN(C)C(c1ccccc1)C1CCC(CCNC(=O)c2cccnc2Sc2ccc(Cl)cc2)CC1 (single isomer, unassigned) [compound 471, 2-(4-chloro-phenylsulfanyl)-N-{2-[4-(dimethylamino-phenyl-methyl)-cyclohexyl]-ethyl}-nicotinamide] | – | 87 | – | 82

From US8058475B2, “Substituted cyclohexylmethyl compounds” (Gruenenthal GmbH, priority 2005, dated 2011)
